In US7378375B1, “Substituted pyridine herbicides” (Syngenta Crop Protection, Inc., priority 2000, dated 2008):

How the values were obtained:
[1] = tested on: Monocotyledonous and dicotyledonous test plants; assay: Post-emergence herbicidal action, greenhouse pot test, sprayed at the 2- to 3-leaf stage, 9-level rating after 2 to 3 weeks; assay type: in vivo; design: key: 9-level scale: 1 = complete damage, 9 = no effect; settings: 250 g/ha, rated after 2 to 3 weeks, 9-level scale
Procedure, shortened: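 Plants grown in standard soil in pots; test substances sprayed at the 2- to 3-leaf stage at optimum dosage (500 l water/ha) as aqueous suspension or emulsion from formulated concentrates. Plants then kept in the greenhouse under optimum conditions; rated after 2 to 3 weeks on a 9-level scale (1=complete damage, 9=no effect).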

[2] = tested on: Monocotyledonous and dicotyledonous test plants; assay: Herbicidal action before emergence of the plants (pre-emergence action), greenhouse pot test, 9-level rating after 4 weeks; assay type: in vivo; design: key: 9-level scale: 1 = complete damage, 9 = no effect; settings: 250 g/ha, rated after 4 weeks, 9-level scale
Procedure, shortened: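 Compounds applied pre-emergence as a spray (500 l water/ha) of aqueous suspension or emulsion onto soil immediately after sowing mono- and dicot species in pots. Greenhouse-grown; damage rated after 4 weeks on a 9-level scale (1=complete damage, 9=no effect).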

SMILES | Post-emergence action rating, Abutilon [1] | Post-emergence action rating, Amaranth [1] | Post-emergence action rating, Chenop. [1] | Post-emergence action rating, Digitaria [1] | Post-emergence action rating, Echino. [1] | Post-emergence action rating, Ipopur. [1] | Post-emergence action rating, Panicum [1] | Post-emergence action rating, Xanth. [1] | Pre-emergence action rating, Abutilon [2] | Pre-emergence action rating, Amaranthus [2] | Pre-emergence action rating, Chenop. [2] | Pre-emergence action rating, Digitaria [2] | Pre-emergence action rating, Echino. [2] | Pre-emergence action rating, Panicum [2]
O=C(C1=C(O)C2CCC(C2)C1=O)c1ccc(C(F)(F)F)nc1COCC1CO1 (centres unmarked) [A57-B52 (H5), 4-Hydroxy-3-(2-oxiranylmethoxymethyl-6-trifluoromethylpyridine-3-carbonyl)-bicyclo[3.2.1]oct-3-en-2-one] | 1 | 1 | 1 | 1 | 2 | 2 | 1 | 2 | 1 | 1 | 1 | 1 | 1 | 1
CCOCc1nc(C(F)(F)F)ccc1C(=O)c1cnn(C)c1O [A2-C5] | 2 | 1 | 1 | 2 | 2 | 2 | 1 | 2 | 1 | 1 | 1 | 2 | 2 | 1
CCCCCCCC(=O)OCc1nc(C(F)(F)F)ccc1C(=O)C1=C(O)C2CCC(C2)C1=O (centres unmarked) [A843-B52] | 3 | 3 | 1 | 3 | 3 | 6 | 2 | 3 | 1 | 1 | 1 | 2 | 2 | 1
O=C(C1=C(O)C2CCC(C2)C1=O)c1ccc(C(F)(F)F)nc1COCCOC1CCCCO1 (centres unmarked) [A842-B52] | 3 | 2 | 1 | 3 | 5 | 3 | 3 | 3 | 2 | 2 | 1 | 6 | 2 | 1
CCN(CC)CC.O=C(C1=C(O)C2CCC(C2)C1=O)c1ccc(C(F)(F)F)nc1COC1CCCCO1 (centres unmarked) [A28-B52 (Et3NH+)] | 2 | 2 | 1 | 2 | 2 | 2 | 1 | 3 | 3 | 1 | – | 2 | 2 | 1
COCCOCc1nc(C(F)(F)F)ccc1C(=O)C1=C(O)CCC(C)(C)C1=O [A10-B3] | 1 | 1 | 1 | 1 | 3 | 2 | 1 | 1 | 1 | 1 | 1 | 1 | 1 | 1
COCCOCc1nc(C(F)(F)F)ccc1C(=O)c1cnn(C)c1OS(C)(=O)=O [A10-C28] | 3 | 2 | 1 | 4 | 4 | 3 | 4 | 3 | 1 | 1 | 1 | 3 | 2 | 1
CC#CCOCc1nc(C(F)(F)F)ccc1C(=O)C1=C(O)C2CCC(C2)C1=O (centres unmarked) [A20-B52] | 2 | 2 | 1 | 2 | 2 | 2 | 1 | 2 | 3 | 3 | – | 1 | 1 | 1
CCC(OC)OCCOCc1nc(C(F)(F)F)ccc1C(=O)C1=C(O)C2CCC(C2)C1=O (centres unmarked) [A838-B52] | 1 | 2 | 1 | 2 | 3 | 2 | 2 | 2 | 1 | 1 | 1 | 3 | 2 | 1
O=C(C1=C(O)C2CCC(C2)C1=O)c1ccc(C(F)(F)F)nc1COCC1CC1 (centres unmarked) [A56-B52] | 2 | 1 | 1 | 2 | 2 | 2 | 1 | 2 | 3 | 1 | 1 | 2 | 1 | 1
N#CCCOCc1nc(C(F)(F)F)ccc1C(=O)C1=C(O)C2CCC(C2)C1=O (centres unmarked) [A849-B52] | 2 | 2 | 2 | 2 | 3 | 2 | 2 | 2 | 2 | 1 | 1 | 2 | 2 | 1
O=C(C1=C(O)C2CCC(C2)C1=O)c1ccc(C(F)(F)F)nc1COCC1CCCO1 (centres unmarked) [A848-B52] | 2 | 1 | 1 | 2 | 2 | 2 | 2 | 2 | 7 | 1 | 1 | 1 | 1 | 1
O=C(C1=C(O)C2CCC(C2)C1=O)c1ccc(C(F)(F)F)nc1COCCOCC(F)(F)F (centres unmarked) [A845-B52] | 2 | 2 | 1 | 2 | 2 | 2 | 2 | 2 | 1 | 1 | 1 | 1 | 1 | 1
O=C(C1=C(O)C2CCC(C2)C1=O)c1ccc(C(F)(F)F)nc1COCC1COCO1 (centres unmarked) [A852-B52] | 3 | 3 | 1 | 4 | 4 | 3 | 3 | 3 | 4 | 1 | 2 | 1 | 1 | 1
